Assay results from patent EP4806892A1, “CEREBLON E3 UBIQUITIN LIGASE INHIBITOR” (GAN & LEE PHARMACEUTICALS CO., LTD., priority 2023, dated 2025).

Assays:
Assay type in all cases: cell-based
T-47D cells = test: T-47D cell proliferation inhibition (CCK-8); details: Homo sapiens, T47D, 144 h, 6 days
Experimental: The complete culture medium required for breast ductal carcinoma T-47D cells is 1640 (ATCC, Product number: A10491-01) basal medium containing 10% fetal bovine serum. T-47D cells were seeded in 96-well plates at a density of 3,000/well, and different concentrations of PROTAC compounds 1-55 provided in the embodiments of the present invention and the positive control sample ARV-471 (source: Inokai) were prepared to treat the cells and incubated at 37°C, 5% CO2 in a cell culture incubator for 6 days. According to the manufacturer's instructions, the CCK-8 kit (Beyotime, Product number: C0040) was used to detect cell viability. The IC50 of each compound for 6 days was calculated using GraphPadPrism software based on the inhibition rate. Table 6: IC50 value for the inhibition of T-47D cell proliferation by PROTAC compounds and positive control sample

MCF-7 cells = test: MCF-7 cell proliferation inhibition (CCK-8); details: Homo sapiens, MCF7, 144 h, 6 days
Experimental: The complete culture medium required for breast cancer MCF-7 cells (source ATCC) is DMEM (gibco, Product number: 11995-065) basal medium containing 10% fetal bovine serum. MCF-7 cells were seeded in 96-well plates at a density of 800 cells/well, and different concentrations of PROTAC compounds 1-55 provided in the embodiments of the present invention and the positive control sample ARV-471 (source: Inokai) were prepared to treat cells. The cells were incubated at 37 °C and 5% CO2 in a cell culture incubator for 6 days. Cell viability was detected using a CCK-8 kit (Beyotime, Product number: C0040) according to the manufacturer's instructions. The IC50 value of each PROTAC compound for 6 days was calculated using GraphPad Prism software based on the inhibition rate. Table 7: IC50 value for the inhibition of MCF-7 cell proliferation by PROTAC compounds of the present disclosure and positive control sample

AR protein = molecular target: T1, AR protein (Homo sapiens, UniProt P10275, T878A); test: AR protein degradation in LNCaP cells (Western blot); details: 8 hours
T1 construct: AR-positive human prostate cancer cells (LNCaP, cell source: ATCC); host or cells: LNCaP
Experimental: AR-positive human prostate cancer cells (LNCaP, cell source: ATCC) were cultured in RPMI 1640 (ATCC catalog number 30-2001) containing 10% FBS (Hyclone catalog number SH30406.05), and the cells were inoculated into a six-well microplate (Thermo catalog number 140675) at a density of 1.5 × 10^5 cells/well. After the cells were cultured overnight in a carbon dioxide incubator (ESCO), the prepared compound of the present invention and the positive control sample ARV-766 (source: energy chemical) solution of different concentrations were added at a volume of 1 µL/well to make the final concentrations of the compound and the positive control sample reach 100nM and 10nM, respectively. At the same time, the corresponding solvent control was set and cultured for 8 hours. After 8 hours of culture, the culture medium was removed, the cells were washed with PBS, and RIPA lysis buffer containing 1% Protease Inhibitor Cocktail was added. After lysis and centrifugation, the total protein extract was obtained, and the protein concentration in the extract was detected by BCA method. Protein electrophoresis was performed using SDS-PAGE, and then the protein was transferred to a PVDF (Millipore Sigma catalog number PSRP010R5) membrane at a constant voltage of 100V for 60 minutes. The PVDF membrane was placed in a 5% milk powder 1×TBST solution and blocked at room temperature for 1 hour. The primary antibody solution (Anti-Androgen receptor, Cell Signaling Technology catalog number: 5153S; 1:2000 dilution) was prepared and incubated at 4°C overnight. The primary antibody solution was discarded and the PVDF membrane was washed with 1×TBST for 5 minutes each time, three times. The secondary antibody solution (Thermo, catalog number SA5-35571; 1:7500 dilution) was prepared and incubated at room temperature for 1 hour. The secondary antibody solution was discarded and the PVDF membrane was washed with 1×TBST for 5 minutes each time, three times. A dual-color infrared laser imaging system (Licor catalog number Odyssey CLX) was used for Western membrane imaging. The Image Studio software was used to analyze the grayscale of the bands. GAPDH protein bands were also detected for each sample as an internal reference. The AR protein degradation rate of the compound and the positive control sample was calculated based on the grayscale of the protein bands. Among them, "A" means degradation rate ≥ 50%, "B" means 50%> degradation rate ≥ 20%, "C" means 20% degradation rate ≥ 10%, and "D" means degradation rate less than 10%.

VCaP cell = VCaP cell proliferation inhibition (WST-8); details: Homo sapiens, VCaP cells, 168 hours, read-out: IC50 for inhibiting VCAP cell proliferation
Experimental: VCaP cells (ATCC, CRL-2876) were cultured in DMEM (Gibco, 11995-065) complete medium containing 10% fetal bovine serum (Hyclone, SH30406.05). On the first day of the experiment, VCaP cells were seeded at a density of 15,000 cells/well in a 96-well plate using DMEM medium containing 10% fetal bovine serum, with 100 µL of cell suspension per well, and cultured overnight in a cell culture incubator at 37°C and 5% CO2. […] The final concentration of the compound was 9 concentration points of 5-fold serial dilution starting from 10 µM. The wells to which 100 µL of DMEM medium containing 10% fetal bovine serum was added were set as blank controls and cultured in a cell culture incubator at 37°C and 5% CO2 for 168 hours. On the ninth day, the 96-well cell culture plate was removed and 1/10 volume of WST-8 (Beytime, C0040) reagent was added to each well. The absorbance at 450 nm was measured using a microplate reader (TECAN, F50).

LNCAP cell = test: LNCaP cell proliferation inhibition (WST-8); details: Homo sapiens, LNCaP FGC cells, 96 hours, read-out: IC50 for inhibiting LNCAP cell proliferation
Experimental: LNCaP FGC cells (ATCC, CLR-1740) were cultured in RPMI 1640 (ATCC, 30-2001) complete medium supplemented with 10% fetal bovine serum (Hyclone, SH30406.05). On the first day of the experiment, LNCaP FGC cells were seeded at a density of 5,000 cells/well in 96-well plates using RPMI 1640 medium supplemented with 10% fetal bovine serum, with 100 µL of cell suspension per well. The cells were cultured overnight in a 37°C, 5% CO2 cell incubator. On the second day, 100 µL of different concentrations of the compound to be tested and the positive control sample ARV-766 (source: Energy Chemical) prepared in culture medium were added to each well. The final concentration of the compound was 9 concentration points of 5-fold serial dilution starting from 10 µM. The wells to which 100 µL of RPMI 1640 culture medium containing 10% fetal bovine serum was added were set as controls. The cells were cultured in a cell culture incubator at 37°C and 5% CO2 for 96 hours. On the sixth day, the 96-well cell culture plate was removed, and 1/10 volume of WST-8 (Beytime, C0040) reagent was added to each well. The absorbance at 450 nm was detected using a microplate reader (TECAN, F50).

T1 sequence (P10275 whole entry T878A): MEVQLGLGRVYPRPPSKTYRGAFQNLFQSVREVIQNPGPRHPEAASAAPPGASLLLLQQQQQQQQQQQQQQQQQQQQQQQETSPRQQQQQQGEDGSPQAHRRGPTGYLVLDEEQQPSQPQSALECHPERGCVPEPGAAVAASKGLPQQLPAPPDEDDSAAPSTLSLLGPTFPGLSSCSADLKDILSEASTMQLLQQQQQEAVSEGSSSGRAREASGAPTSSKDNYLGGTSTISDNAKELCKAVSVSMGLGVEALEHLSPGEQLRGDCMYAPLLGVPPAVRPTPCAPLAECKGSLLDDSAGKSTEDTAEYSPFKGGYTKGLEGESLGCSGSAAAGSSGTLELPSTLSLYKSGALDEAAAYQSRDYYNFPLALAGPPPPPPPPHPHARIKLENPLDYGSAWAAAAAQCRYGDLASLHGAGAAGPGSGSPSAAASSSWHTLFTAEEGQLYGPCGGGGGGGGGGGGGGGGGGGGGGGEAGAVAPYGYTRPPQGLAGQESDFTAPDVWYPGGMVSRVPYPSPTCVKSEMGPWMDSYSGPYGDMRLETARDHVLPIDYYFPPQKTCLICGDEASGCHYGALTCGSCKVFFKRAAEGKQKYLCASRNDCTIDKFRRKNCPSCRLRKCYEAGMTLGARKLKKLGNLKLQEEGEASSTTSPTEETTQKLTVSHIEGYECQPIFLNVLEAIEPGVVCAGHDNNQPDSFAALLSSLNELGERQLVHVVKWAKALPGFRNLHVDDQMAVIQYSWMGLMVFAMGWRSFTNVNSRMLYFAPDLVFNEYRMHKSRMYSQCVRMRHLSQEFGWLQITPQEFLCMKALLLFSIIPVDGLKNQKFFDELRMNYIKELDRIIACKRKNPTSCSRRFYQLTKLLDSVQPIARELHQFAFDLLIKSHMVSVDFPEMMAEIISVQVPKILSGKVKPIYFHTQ
T1 sequence (Q96SW2 whole entry partner): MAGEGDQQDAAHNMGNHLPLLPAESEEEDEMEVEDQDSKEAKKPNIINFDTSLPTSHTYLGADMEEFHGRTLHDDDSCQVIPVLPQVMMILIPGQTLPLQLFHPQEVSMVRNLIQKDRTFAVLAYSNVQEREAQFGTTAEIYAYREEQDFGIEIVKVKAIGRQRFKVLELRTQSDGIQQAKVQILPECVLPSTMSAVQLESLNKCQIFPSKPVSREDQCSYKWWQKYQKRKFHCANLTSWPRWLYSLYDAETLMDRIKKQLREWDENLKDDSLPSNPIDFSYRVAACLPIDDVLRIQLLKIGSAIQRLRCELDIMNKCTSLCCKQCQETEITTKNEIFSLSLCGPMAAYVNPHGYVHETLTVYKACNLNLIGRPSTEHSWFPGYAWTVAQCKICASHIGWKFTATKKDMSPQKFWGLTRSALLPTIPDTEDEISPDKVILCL

Compound	IC50 (T-47D cells) [nM]	IC50 (MCF-7 cells) [nM]	Degradation rate of AR protein in LNCAP cells (AR protein; 10 nM)	Degradation rate of AR protein in LNCAP cells (AR protein; 100 nM)	IC50 (VCaP cell) [nM]	IC50 (LNCAP cell) [nM]
O=C1CCN(c2ccc3c(c2)OCC32CCN(C[C@H]3CC[C@@H](OC4CCN(c5ccc([C@@H]6c7ccc(O)cc7CC[C@@H]6c6ccccc6)cc5)CC4)CC3)CC2)C(=O)N1 [ER-P-4, 1-(1'-(((1S,4S)-4-((1-(4-((1R,2S)-6-hydroxy-2-phenyl-1,2,3,4-tetrahydronaphthalen-1-yl)phenyl)piperidin-4-yl)oxy)cyclohexyl)methyl)-2H-spiro [benzofuran-3,4'-piperidine]-6-yl)dihydropyrimidine-2,4(1H,3H)-dione]	52.5	944				
O=C1CCC(c2ccc3c(c2)OC2(CC3)CCN(C[C@H]3CC[C@@H](OC4CCN(c5ccc([C@@H]6c7ccc(O)cc7CC[C@@H]6c6ccccc6)cc5)CC4)CC3)CC2)C(=O)N1 (stereo partly drawn) [ER-P-5, 3-(1'-(((1S,4S)-4-((1-(4-((1R,2S)-6-hydroxy-2-phenyl-1,2,3,4-tetrahydronaphthyl-1-yl)phenyl)piperidin-4-yl)oxy)cyclohexyl)methyl)spiro[chroman-2,4'-piperidine]-7-yl)piperidine-2,6-dione]		873				
COc1cc(N2CC3(CCN(c4ccc(C(=O)N5CCC(CN6CCC7(CCc8ccc(N9CCC(=O)NC9=O)cc8O7)CC6)CC5)cc4)CC3)C[C@@H]2C)ccc1C#N [A-P-83, (S)-4-(8-(4-(4-((7-(2,4-dioxotetrahydropyrimidin-1(2H)-yl)spiro[chroman-2,4'-piperidine]-1'-yl)methyl)piperidine-1-carbonyl)phenyl)-3-methyl-2,8-diazaspiro[4.5]dec-2-yl)-2-methoxybenzonitrile]			A (degradation rate ≥ 50%)	A (degradation rate ≥ 50%)	< 0.026	550
O=C1CCN(c2ccc3c(c2)CC2(CCN(C[C@H]4CC[C@@H](OC5CCN(c6ccc([C@@H]7c8ccc(O)cc8CC[C@@H]7c7ccccc7)cc6)CC5)CC4)CC2)CO3)C(=O)N1 [ER-P-6, 1-(1'-(((1S,4S)-4-((1-(4-((1R,2S)-6-hydroxy-2-phenyl-1,2,3,4-tetrahydronaphthalen-1-yl)phenyl)piperidin-4-yl)oxy)cyclohexyl)methyl)spiro[benzo-dihydro-3,4'-piperidin]-6-yl)dihydropyrimidine-2,4(1H,3H)-dione]	367	847				
O=C1CC[C@H](N2Cc3cc(N4CCN(CC5CCN(c6ccc([C@@H]7c8ccc(O)cc8CC[C@@H]7c7ccccc7)cc6)CC5)CC4)ccc3C2=O)C(=O)N1 [ARV-471, reference compound]	2.69	113				
